The NIST ThermoML archive (doi:10.1016/j.jct.2007.09.008)
± gives the expanded uncertainty stated by the source.

Settings: Liquid, Closed cell (Static) method

| SMILES | vapor or sublimation pressure (283.1 K) | vapor or sublimation pressure (293.1 K) | vapor or sublimation pressure (303.1 K) | vapor or sublimation pressure (312.9 K) | vapor or sublimation pressure (323.3 K) | vapor or sublimation pressure (333.3 K) | vapor or sublimation pressure (343.1 K) | vapor or sublimation pressure (293.2 K) | vapor or sublimation pressure (313.1 K) | vapor or sublimation pressure (323.2 K) | vapor or sublimation pressure (333.1 K) | vapor or sublimation pressure (283.2 K) | vapor or sublimation pressure (292.9 K) | vapor or sublimation pressure (302.9 K) | vapor or sublimation pressure (323.1 K) | vapor or sublimation pressure (333.2 K) | vapor or sublimation pressure (343.2 K) |
| --- | --- | --- | --- | --- | --- | --- | --- | --- | --- | --- | --- | --- | --- | --- | --- | --- | --- |
| CCC1CCC(=O)O1 (stereo unspecified) [2(3H)-furanone, 5-ethyldihydro-] | 0.075 ± 0.008 kPa | 0.128 ± 0.008 kPa | 0.221 ± 0.008 kPa | 0.356 ± 0.016 kPa | 0.564 ± 0.019 kPa | 0.862 ± 0.027 kPa | 1.367 ± 0.1 kPa |  |  |  |  |  |  |  |  |  |  |
| CC1CCCC(=O)O1 (stereo unspecified) [2H-pyran-2-one, tetrahydro-6-methyl-] | 0.005 ± 0.002 kPa |  | 0.025 ± 0.016 kPa |  |  |  | 0.354 ± 0.02 kPa | 0.011 ± 0.006 kPa | 0.054 ± 0.004 kPa | 0.103 ± 0.006 kPa | 0.191 ± 0.01 kPa |  |  |  |  |  |  |
| O=C1CCCCCO1 [6-hexanolactone] |  |  |  |  |  |  |  |  | 0.213 ± 0.008 kPa |  |  | 0.045 ± 0.002 kPa | 0.079 ± 0.003 kPa | 0.131 ± 0.006 kPa | 0.339 ± 0.012 kPa | 0.518 ± 0.021 kPa | 0.768 ± 0.031 kPa |
